Earlier results as cited in patent US4533546A, “Antiinflammatory analgesic gelled ointments” (Lederle (Japan), Ltd., priority 1983, dated 1985).

Key:
[1] = in water and various pharmaceutically acceptable solvents; in words
digestive organs = settings: oral, background statement in words

Row | SMILES | solubility [1] | side-effects (digestive organs)
1 | O=C(O)Cc1ccc(-c2ccccc2)cc1 [4-biphenylylacetic acid] | insoluble or only sparingly soluble in water and various pharmaceutically acceptable solvents | side-effects on the digestive organs
2 | COc1ccc2c(c1)c(CC(=O)O)c(C)n2C(=O)c1ccc(Cl)cc1 [indomethacin] | – | side-effects on the digestive organs
3 | CC(C)Cc1ccc(CC(=O)O)cc1 [ibufenac] | – | side-effects on the digestive organs
4 | CC(C)Cc1ccc(C(C)C(=O)O)cc1 (centres unmarked) [ibuprofen] | – | side-effects on the digestive organs
